Measurements: US20220332700A1, “NOVEL APOPTOSIS SIGNAL-REGULATING KINASE 1 INHIBITORS” (MANKIND PHARMA LTD, priority 2019, published 2022)

What was measured:
recombinant ASK1 = target: T1, recombinant ASK1 (Homo sapiens, UniProt Q99683); test: ASK1 Biochemical Assay (HTRF KinEASE-STK S3); conditions: ATP 100 μM; read-out: Biochemical Assay IC50
T1 construct: purchased Carna Biosciences
Summary of the method: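 Recombinant ASK1 (5 ng) preincubated with compound 1 h at 23 °C in MOPS pH 7 buffer with Mg-acetate, DTT, NP40, glycerol, BSA and 1% DMSO. Inhibition calculated against vehicle after substrate-blank subtraction.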

Human ASK1 = target: T2, Human ASK1 (Homo sapiens, UniProt Q99683); test: ASK1 Cell Based Assay (phospho p38 read out in hASK1 transfected HEK293T-AP1 cells); conditions: HEK293T-AP1 cells, 1 mM hydrogen peroxide, phospho p38; read-out: Cell Based Assay IC50
T2 construct: expressed in transfected cells; host or cells: HEK293T-AP1
T2 sequence (Q99683 1-1374): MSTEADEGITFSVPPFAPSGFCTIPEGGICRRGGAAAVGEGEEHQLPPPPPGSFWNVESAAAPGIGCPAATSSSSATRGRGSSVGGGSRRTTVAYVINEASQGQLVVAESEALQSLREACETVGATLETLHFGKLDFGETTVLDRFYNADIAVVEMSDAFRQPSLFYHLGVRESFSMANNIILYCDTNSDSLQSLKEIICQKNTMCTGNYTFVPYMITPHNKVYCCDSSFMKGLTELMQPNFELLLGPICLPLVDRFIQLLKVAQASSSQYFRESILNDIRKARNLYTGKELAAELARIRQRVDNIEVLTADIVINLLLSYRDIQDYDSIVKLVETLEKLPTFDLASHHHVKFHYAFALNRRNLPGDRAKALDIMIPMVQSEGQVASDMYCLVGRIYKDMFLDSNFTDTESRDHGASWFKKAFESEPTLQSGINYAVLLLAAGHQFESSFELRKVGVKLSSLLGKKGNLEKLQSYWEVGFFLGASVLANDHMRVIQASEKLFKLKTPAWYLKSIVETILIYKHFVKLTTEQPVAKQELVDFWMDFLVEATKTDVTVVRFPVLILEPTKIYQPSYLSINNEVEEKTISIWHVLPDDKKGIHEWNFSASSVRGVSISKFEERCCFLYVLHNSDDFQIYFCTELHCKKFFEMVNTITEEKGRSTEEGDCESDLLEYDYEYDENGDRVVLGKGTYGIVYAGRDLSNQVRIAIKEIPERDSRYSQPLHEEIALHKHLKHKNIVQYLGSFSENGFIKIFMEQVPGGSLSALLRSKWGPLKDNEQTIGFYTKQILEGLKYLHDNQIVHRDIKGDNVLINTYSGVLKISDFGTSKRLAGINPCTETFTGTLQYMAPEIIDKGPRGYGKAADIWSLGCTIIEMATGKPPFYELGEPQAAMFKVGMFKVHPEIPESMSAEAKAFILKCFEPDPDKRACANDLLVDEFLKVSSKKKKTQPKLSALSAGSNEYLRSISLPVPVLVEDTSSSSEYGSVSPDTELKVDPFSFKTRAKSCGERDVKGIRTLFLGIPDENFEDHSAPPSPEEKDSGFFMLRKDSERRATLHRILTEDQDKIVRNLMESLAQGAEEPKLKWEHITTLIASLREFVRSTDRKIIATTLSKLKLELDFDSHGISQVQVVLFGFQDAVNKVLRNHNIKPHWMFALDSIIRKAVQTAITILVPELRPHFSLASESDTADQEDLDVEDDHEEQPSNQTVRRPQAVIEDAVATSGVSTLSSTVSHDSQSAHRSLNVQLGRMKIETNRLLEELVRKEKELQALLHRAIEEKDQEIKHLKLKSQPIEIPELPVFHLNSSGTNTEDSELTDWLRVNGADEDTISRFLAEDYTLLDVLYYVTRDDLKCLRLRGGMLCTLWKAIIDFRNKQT
Protocol: HEK293T-AP1 cells were seeded at a density of 20,000 cells per well in a poly-d-lysine coated 96 well microplate. Next day, cells were transfected with hASK1-pcDNA3.1 vector using lipofectamine 3000. After 24 hours of transfection, cells were treated with compounds for 24 hours in assay medium. DMSO was used as a vehicle control with a final DMSO concentration of 0.2%. On 4th day, medium was discarded and cells were activated with 1 mM hydrogen peroxide for 1 hour in the presence of compounds. Cells were lysed for 1 hour with 1× lysis buffer on a shaker at 100 rpm. Sixteen microliters of lysate was collected into a 384 well small volume plate. Phospho p38 levels in the lysate was detected by using CisbioPhospho-p38 MAPK (Thr180/Tyr182) #64P38PEG.Four microliters of phospho p38 antibodies labelled with europium cryptate and d2 acceptor, were added to the lysate and incubated overnight. TR-FRET was measured at an excitation of 335 nm and emission was measured at 615 nm and 665 nm in BMG FLUOstar multimode reader.
Compounds were assessed for ASK1 inhibition based on phospho p38 read out. […] Background control values were susbtracted from vehicle control as well as from compound treated wells.

Compound	IC50 (recombinant ASK1) [µM]	IC50 (Human ASK1) [µM]
CC(C)n1cnnc1-c1cccc(N2CCN(c3ccc(CN4CCOCC4)cc3)C2=O)n1 [Example 1080, 1-(6-(4-isopropyl-4H-1,2,4-triazol-3-yl)pyridin-2-yl)-3-(4-(morpholinomethyl)phenyl)imidazolidin-2-one]	< 0.1	> 1
CC(C)n1cnnc1-c1cccc(N2CCN(Cc3ccc(N4CCOCC4)cc3)C2=O)n1 [Example 1112, 1-(4-morpholinobenzyl)-3-(6-(4-isopropyl-4H-1,2,4-triazol-3-yl)pyridin-2-yl)imidazolidin-2-one]	< 0.1	> 1
CNC(=O)C1CCN(Cc2ccc(N3CCN(c4cccc(-c5nncn5C(C)C)n4)C3=O)cc2)CC1 [Example 1128, 1-(4-(3-(6-(4-isopropyl-4H-1,2,4-triazol-3-yl)pyridin-2-yl)-2-oxoimidazolidin-1-yl)benzyl)-N-methylpiperidine-4-carboxamide]	< 0.1	> 1
CC(C)n1cnnc1-c1cccc(N2CCN(c3ccc(N4CCC(F)CC4)cc3)C2=O)n1 [Example 1138, 1-(4-(4-fluoropiperidin-1-yl)phenyl)-3-(6-(4-isopropyl-4H-1,2,4-triazol-3-yl)pyridin-2-yl)imidazolidin-2-one]	< 0.1	> 0.1
CC(C)n1cnnc1-c1cccc(N2CCN(c3ccc(N4CCC(C#N)CC4)cc3)C2=O)n1 [Example 1087, 1-(4-(3-(6-(4-isopropyl-4H-1,2,4-triazol-3-yl)pyridin-2-yl)-2-oxoimidazolidin-1-yl)phenyl)piperidine-4-carbonitrile]	< 0.1	> 0.1
CNC(=O)C1CCN(c2ccc(N3CCN(c4cccc(-c5nncn5C(C)C)n4)C3=O)cn2)CC1 [Example 1116, 1-(5-(3-(6-(4-isopropyl-4H-1,2,4-triazol-3-yl)pyridin-2-yl)-2-oxoimidazolidin-1-yl)pyridin-2-yl)-N-methylpiperidine-4-carboxamide]	< 0.05	< 0.1
CNC1(C2CCN(c3ccc(N4CCN(c5cccc(-c6nncn6C(C)C)n5)C4=O)cc3)CC2)COC1 [Example 1139, 1-(6-(4-isopropyl-4H-1,2,4-triazol-3-yl)pyridin-2-yl)-3-(4-(4-(3-(methylamino)oxetan-3-yl)piperidin-1-yl)phenyl)imidazolidin-2-one]	< 0.1	> 0.1
CC(C)NC(=O)c1ccc(N2CCN(c3cccc(-c4nncn4C(C)C)n3)C2=O)cn1 [Example 1110, N-isopropyl-5-(3-(6-(4-isopropyl-4H-1,2,4-triazol-3-yl)pyridin-2-yl)-2-oxoimidazolidin-1-yl)pyridine-2-carboxamide]	< 0.1	> 1
CC(C)n1cnnc1-c1cccc(N2CCN(c3cccc(-n4ccnc4)c3)C2=O)n1 [Example 1002, 1-(3-(1H-imidazol-1-yl)phenyl)-3-(6-(4-isopropyl-4H-1,2,4-triazol-3-yl)pyridin-2-yl)imidazolidin-2-one]	0.07	> 1
COCCCNc1ccc(N2CCN(c3cccc(-c4nncn4C(C)C)n3)C2=O)cn1 [Example 1118, 1-(6-(3-methoxypropylamino)pyridin-3-yl)-3-(6-(4-isopropyl-4H-1,2,4-triazol-3-yl)pyridin-2-yl)imidazolidin-2-one]	< 0.1	> 1
CC(c1ccc(N2CCN(c3cccc(-c4nncn4C(C)C)n3)C2=O)cc1)N1CCOCC1 (stereo not drawn) [Example 1114, 1-(6-(4-isopropyl-4H-1,2,4-triazol-3-yl)pyridin-2-yl)-3-(4-(1-morpholinoethyl)phenyl)imidazolidin-2-one]	< 0.01	> 1
CNC(=O)[C@@H]1CCN(c2ccc(N3CCN(c4cccc(-c5nncn5C(C)C)n4)C3=O)cc2)C1 [Example 1130, (R)-1-(4-(3-(6-(4-isopropyl-4H-1,2,4-triazol-3-yl)pyridin-2-yl)-2-oxoimidazolidin-1-yl)phenyl)-N-methylpyrrolidine-3-carboxamide]	< 0.05	< 0.1

Second part, the molecule after the results:

IC50 (recombinant ASK1) [µM]	IC50 (Human ASK1) [µM]	Compound
> 0.1	> 1	CC(C)n1cnnc1-c1cccc(N2CCN(c3ccc(NC(C#N)C4CC4)cc3)C2=O)n1 (stereo not drawn) [Example 1056, 2-(4-(3-(6-(4-isopropyl-4H-1,2,4-triazol-3-yl)pyridin-2-yl)-2-oxoimidazolidin-1-yl)phenylamino)-2-cyclopropylacetonitrile]
< 0.1	< 1	CNS(=O)(=O)c1ccc(N2CCN(c3cccc(-c4nncn4C(C)C)n3)C2=O)cc1 [Example 1045, 4-(3-(6-(4-isopropyl-4H-1,2,4-triazol-3-yl)pyridin-2-yl)-2-oxoimidazolidin-1-yl)-N-methylbenzenesulfonamide]
< 0.1	> 1	CC(C)n1cnnc1-c1cccc(N2CCN(c3ccc4c(ccn4C)c3)C2=O)n1 [Example 1125, 1-(6-(4-isopropyl-4H-1,2,4-triazol-3-yl)pyridin-2-yl)-3-(1-methyl-1H-indol-5-yl)imidazolidin-2-one]
< 0.1	> 1	CC(C)n1cnnc1-c1cccc(N2CCN(c3ccc(NS(C)(=O)=O)cc3)C2=O)n1 [Example 1044, N-(4-(3-(6-(4-isopropyl-4H-1,2,4-triazol-3-yl)pyridin-2-yl)-2-oxoimidazolidin-1-yl)phenyl)methanesulfonamide]
< 0.1	< 1	CC(C)n1cnnc1-c1cccc(N2CCN(c3ccc(S(C)(=O)=O)cc3)C2=O)n1 [Example 1013, 1-(6-(4-isopropyl-4H-1,2,4-triazol-3-yl)pyridin-2-yl)-3-(4-(methylsulfonyl)phenyl)imidazolidin-2-one]
< 0.1	> 1	CC(C)n1cnnc1-c1cccc(N2CCN(c3ccc(C(O)C(F)(F)F)cc3)C2=O)n1 (stereo not drawn) [Example 1083, 1-(4-(2,2,2-trifluoro-1-hydroxyethyl)phenyl)-3-(6-(4-isopropyl-4H-1,2,4-triazol-3-yl)pyridin-2-yl)imidazolidin-2-one]
< 0.1	> 1	CC(C)n1cnnc1-c1cccc(N2CCN(c3ccc(C4CCN(S(C)(=O)=O)CC4)cc3)C2=O)n1 [Example 1084, 1-(6-(4-isopropyl-4H-1,2,4-triazol-3-yl)pyridin-2-yl)-3-(4-(1-(methylsulfonyl)piperidin-4-yl)phenyl)imidazolidin-2-one]
< 0.1	> 1	CC(CO)n1cnnc1-c1cccc(N2CCN(c3ccc(S(C)(=O)=O)cc3)C2=O)n1 (stereo not drawn) [Example 1057, 1-(6-(4-(1-hydroxypropan-2-yl)-4H-1,2,4-triazol-3-yl)pyridin-2-yl)-3-(4-(methylsulfonyl)phenyl)imidazolidin-2-one]
< 0.1	> 0.1	CC(C)n1cnnc1-c1cccc(N2CCN(c3ccc(S(=O)(=O)N4CCOCC4)cc3)C2=O)n1 [Example 1073, 1-(6-(4-isopropyl-4H-1,2,4-triazol-3-yl)pyridin-2-yl)-3-(4-(morpholinosulfonyl)phenyl)imidazolidin-2-one]
